Measured values reported in PubChem BioAssay (NCI).
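Each compound was tested at five concentrations against cells in 96-well plates for 48 hours. At the GI50, growth is halved. TGI marks complete inhibition of growth.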

Key:
Assay in all cases: NCI tumour cell line growth inhibition, 48 h
UACC-257 melanoma = system: UACC-257 melanoma
UACC-62 melanoma = system: UACC-62 melanoma
RPMI-8226 leukemia = system: RPMI-8226 leukemia
NCI-H23 lung = system: NCI-H23 lung
BT-549 breast = system: BT-549 breast
SR leukemia = system: SR leukemia
CCRF-CEM leukemia = system: CCRF-CEM leukemia
LOX IMVI melanoma = system: LOX IMVI melanoma
SK-MEL-2 melanoma = system: SK-MEL-2 melanoma
ACHN renal = system: ACHN renal
OVCAR-4 ovarian = system: OVCAR-4 ovarian
MDA-MB-231 breast = system: MDA-MB-231 breast
HCT-116 colon = system: HCT-116 colon
HS 578T breast = system: HS 578T breast
MDA-MB-435 = system: MDA-MB-435
MALME-3M melanoma = system: MALME-3M melanoma
IGROV1 ovarian = system: IGROV1 ovarian
EKVX NSCLC = system: EKVX NSCLC
HCC-2998 colon = system: HCC-2998 colon
SN12C renal = system: SN12C renal
COLO 205 colon = system: COLO 205 colon
SK-OV-3 ovarian = system: SK-OV-3 ovarian
HOP-62 NSCLC = system: HOP-62 NSCLC
CAKI-1 renal = system: CAKI-1 renal
T-47D breast = system: T-47D breast
SNB-19 CNS = system: SNB-19 CNS
OVCAR-5 ovarian = system: OVCAR-5 ovarian
HL-60(TB) leukemia = system: HL-60(TB) leukemia
PC-3 prostate = system: PC-3 prostate
K-562 leukemia = system: K-562 leukemia
SF-295 CNS = system: SF-295 CNS
HT29 colon = system: HT29 colon
U251 CNS = system: U251 CNS
UO-31 renal = system: UO-31 renal
786-0 renal = system: 786-0 renal
HOP-92 NSCLC = system: HOP-92 NSCLC
KM12 colon = system: KM12 colon
OVCAR-3 ovarian = system: OVCAR-3 ovarian
A498 renal = system: A498 renal
SK-MEL-28 melanoma = system: SK-MEL-28 melanoma
A549 NSCLC = system: A549 NSCLC
NCI-H460 lung = system: NCI-H460 lung
MCF7 breast = system: MCF7 breast
SF-539 CNS = system: SF-539 CNS
SK-MEL-5 melanoma = system: SK-MEL-5 melanoma
M14 melanoma = system: M14 melanoma
NCI-H522 lung = system: NCI-H522 lung
SF-268 CNS = system: SF-268 CNS
DU-145 prostate = system: DU-145 prostate
NCI/ADR-RES ovarian = system: NCI/ADR-RES ovarian
MOLT-4 leukemia = system: MOLT-4 leukemia
HCT-15 colon = system: HCT-15 colon
TK-10 renal = system: TK-10 renal
OVCAR-8 ovarian = system: OVCAR-8 ovarian
SW-620 colon = system: SW-620 colon
SNB-75 CNS = system: SNB-75 CNS
NCI-H226 lung = system: NCI-H226 lung
RXF 393 renal = system: RXF 393 renal

## Cc1cc(Oc2ccccc2)ccc1Nc1ncnc2ccc(-c3cnc(Cl)c(NS(C)(=O)=O)c3)cc12
UACC-257 melanoma
  GI50: 1.95 µM
  TGI: 8.26 µM
UACC-62 melanoma
  GI50: 0.625 µM
  TGI: 2.11 µM
RPMI-8226 leukemia
  GI50: 2.18 µM
  TGI: 6.07 µM
NCI-H23 lung
  GI50: 2.18 µM
  TGI: 9.56 µM
BT-549 breast
  GI50: 1.16 µM
  TGI: 4.5 µM
SR leukemia
  GI50: 1.77 µM
  TGI: 5.56 µM
CCRF-CEM leukemia
  GI50: 1.32 µM
  TGI: 15.6 µM
LOX IMVI melanoma
  GI50: 0.964 µM
  TGI: 4 µM
SK-MEL-2 melanoma
  GI50: 1.39 µM
  TGI: 3.77 µM
ACHN renal
  GI50: 2.45 µM
  TGI: 15.5 µM
OVCAR-4 ovarian
  GI50: 2.15 µM
  TGI: 10.5 µM
MDA-MB-231 breast
  GI50: 1.62 µM
  TGI: 4.22 µM
HCT-116 colon
  GI50: 2.51 µM
  TGI: 13.3 µM
HS 578T breast
  GI50: 0.587 µM
  TGI: 6.81 µM
MDA-MB-435
  GI50: 1.26 µM
  TGI: 3.48 µM
MALME-3M melanoma
  GI50: 0.612 µM
  TGI: 3.79 µM
IGROV1 ovarian
  GI50: 0.227 µM
  TGI: 1.13 µM
EKVX NSCLC
  GI50: 1.49 µM
  TGI: 10.6 µM
HCC-2998 colon
  GI50: 1.58 µM
  TGI: 3.75 µM
SN12C renal
  GI50: 2.16 µM
  TGI: 12.5 µM
COLO 205 colon
  GI50: 1.45 µM
  TGI: 3.78 µM
SK-OV-3 ovarian
  GI50: 0.505 µM
  TGI: 4.2 µM
HOP-62 NSCLC
  GI50: 2.84 µM
  TGI: 18.3 µM
CAKI-1 renal
  GI50: 1.04 µM
  TGI: 5.98 µM
T-47D breast
  GI50: 0.185 µM
  TGI: 1.37 µM
SNB-19 CNS
  GI50: 2.2 µM
  TGI: 7.07 µM
OVCAR-5 ovarian
  GI50: 0.544 µM
  TGI: 3.66 µM
HL-60(TB) leukemia
  GI50: 1.55 µM
  TGI: 13.7 µM
PC-3 prostate
  GI50: 1.45 µM
  TGI: 10.5 µM
K-562 leukemia
  GI50: 3.58 µM
  TGI: > 100 µM
SF-295 CNS
  GI50: 1.09 µM
  TGI: 5.43 µM
HT29 colon
  GI50: 1.5 µM
  TGI: 12.1 µM
U251 CNS
  GI50: 2.19 µM
  TGI: 10.5 µM
UO-31 renal
  GI50: 0.604 µM
  TGI: 3.65 µM
786-0 renal
  GI50: 2.23 µM
  TGI: 14 µM
HOP-92 NSCLC
  GI50: 0.246 µM
  TGI: 1.38 µM
KM12 colon
  GI50: 2.17 µM
  TGI: 7.43 µM
OVCAR-3 ovarian
  GI50: 0.855 µM
  TGI: 2.6 µM
A498 renal
  GI50: 1.38 µM
  TGI: 3.97 µM
SK-MEL-28 melanoma
  GI50: 0.745 µM
  TGI: 5.53 µM
A549 NSCLC
  GI50: 2.03 µM
  TGI: 6.16 µM
NCI-H460 lung
  GI50: 1.71 µM
  TGI: 12.5 µM
MCF7 breast
  GI50: 0.282 µM
  TGI: 13.1 µM
SF-539 CNS
  GI50: 1.01 µM
  TGI: 3.62 µM
SK-MEL-5 melanoma
  GI50: 1.55 µM
  TGI: 3 µM
M14 melanoma
  GI50: 2.04 µM
  TGI: 12.9 µM
NCI-H522 lung
  GI50: 2.3 µM
  TGI: 10.3 µM
SF-268 CNS
  GI50: 1.64 µM
  TGI: 12.6 µM
DU-145 prostate
  GI50: 2.04 µM
  TGI: 12.1 µM
NCI/ADR-RES ovarian
  GI50: 3.12 µM
  TGI: > 100 µM
MOLT-4 leukemia
  GI50: 1.51 µM
  TGI: 5.15 µM
HCT-15 colon
  GI50: 1.73 µM
  TGI: 10.7 µM
TK-10 renal
  GI50: 1.79 µM
  TGI: 20.8 µM
OVCAR-8 ovarian
  GI50: 3.39 µM
  TGI: 19 µM
SW-620 colon
  GI50: 2.38 µM
  TGI: 13.1 µM
SNB-75 CNS
  GI50: 0.277 µM
  TGI: 3.41 µM
NCI-H226 lung
  GI50: 3.66 µM
  TGI: 20.1 µM
RXF 393 renal
  GI50: 1.32 µM
  TGI: 3.84 µM
